Structures are written as SMILES. Like-named read-outs stand apart in the source and are kept apart here.

The values that follow come from patent publication US20210230179A1, “THIENO[2,3-B]PYRIDINE DERIVATIVES AS EPAC INHIBITORS AND THEIR PHARMACEUTICAL USES” (INSTITUT NATIONAL DE LA SANTE ET DE LA RECHERCHE MEDICALE …, priority 2018, published 2021).

For series [1], the target named is T1, Epac1 (Homo sapiens, UniProt O95398).
T1 sequence (O95398 191-923 limits assumed): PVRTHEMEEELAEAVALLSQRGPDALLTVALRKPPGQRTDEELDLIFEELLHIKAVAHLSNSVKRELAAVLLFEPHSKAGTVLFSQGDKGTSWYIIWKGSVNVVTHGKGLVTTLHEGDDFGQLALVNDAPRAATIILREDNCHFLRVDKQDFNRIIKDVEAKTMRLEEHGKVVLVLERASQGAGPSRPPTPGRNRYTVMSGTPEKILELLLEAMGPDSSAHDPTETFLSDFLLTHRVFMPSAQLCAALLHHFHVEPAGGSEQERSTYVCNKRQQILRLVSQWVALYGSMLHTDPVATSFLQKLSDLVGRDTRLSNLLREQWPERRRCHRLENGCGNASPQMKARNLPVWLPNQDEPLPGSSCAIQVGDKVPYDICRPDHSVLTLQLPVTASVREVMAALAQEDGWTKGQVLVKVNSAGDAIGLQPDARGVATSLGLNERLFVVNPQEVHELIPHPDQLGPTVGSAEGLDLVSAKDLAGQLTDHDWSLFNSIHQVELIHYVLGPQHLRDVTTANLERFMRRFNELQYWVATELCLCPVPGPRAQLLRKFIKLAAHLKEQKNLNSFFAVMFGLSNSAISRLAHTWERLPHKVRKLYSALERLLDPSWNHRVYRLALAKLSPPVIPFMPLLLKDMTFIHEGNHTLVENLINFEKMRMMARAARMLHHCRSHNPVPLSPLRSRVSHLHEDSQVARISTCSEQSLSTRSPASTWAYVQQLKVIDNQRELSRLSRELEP
The series can be described thus: biochemical. Conditions: for IC50: read-out: IC50, Epac1 GEF activity. The text has this:
FIGS. 4-8. […] Variations of relative fluorescence units (RFU) were studied as a function of time and fitted to single exponentials.

A further series relates to mice. Conditions: single i.v. bolus 8 mg/kg 5 min before reperfusion; 45 min occlusion, 24 h reperfusion.
Series [2] concerns neonatal rat ventricular myocytes. The series can be described thus: cytotoxicity in cultured cells. The following applies: various types of cultured cells including neonatal rat ventricular myocytes. It counts as cell-based.
From the text: Neonatal rat ventricular myocytes (NRVM) isolation: Neonatal rats of 1-2 days old were euthanized by decapitation. The heart was excised and the atria were removed.
Series [3] concerns isolated adult cardiomyocytes. The series can be described thus: hypoxia-reoxygenation injury of isolated adult cardiomyocytes (LDH release). It counts as cell-based, mouse.
The test system of a further series is type I PKA holoenzyme. The series can be described thus: type I PKA holoenzyme activation. Format: biochemical. The following applies: 30 μM, presence and absence of 10 μM cAMP.
The target of series [4] is T2, Epac1 (Homo sapiens, UniProt O95398).
T2 sequence (O95398 1-923): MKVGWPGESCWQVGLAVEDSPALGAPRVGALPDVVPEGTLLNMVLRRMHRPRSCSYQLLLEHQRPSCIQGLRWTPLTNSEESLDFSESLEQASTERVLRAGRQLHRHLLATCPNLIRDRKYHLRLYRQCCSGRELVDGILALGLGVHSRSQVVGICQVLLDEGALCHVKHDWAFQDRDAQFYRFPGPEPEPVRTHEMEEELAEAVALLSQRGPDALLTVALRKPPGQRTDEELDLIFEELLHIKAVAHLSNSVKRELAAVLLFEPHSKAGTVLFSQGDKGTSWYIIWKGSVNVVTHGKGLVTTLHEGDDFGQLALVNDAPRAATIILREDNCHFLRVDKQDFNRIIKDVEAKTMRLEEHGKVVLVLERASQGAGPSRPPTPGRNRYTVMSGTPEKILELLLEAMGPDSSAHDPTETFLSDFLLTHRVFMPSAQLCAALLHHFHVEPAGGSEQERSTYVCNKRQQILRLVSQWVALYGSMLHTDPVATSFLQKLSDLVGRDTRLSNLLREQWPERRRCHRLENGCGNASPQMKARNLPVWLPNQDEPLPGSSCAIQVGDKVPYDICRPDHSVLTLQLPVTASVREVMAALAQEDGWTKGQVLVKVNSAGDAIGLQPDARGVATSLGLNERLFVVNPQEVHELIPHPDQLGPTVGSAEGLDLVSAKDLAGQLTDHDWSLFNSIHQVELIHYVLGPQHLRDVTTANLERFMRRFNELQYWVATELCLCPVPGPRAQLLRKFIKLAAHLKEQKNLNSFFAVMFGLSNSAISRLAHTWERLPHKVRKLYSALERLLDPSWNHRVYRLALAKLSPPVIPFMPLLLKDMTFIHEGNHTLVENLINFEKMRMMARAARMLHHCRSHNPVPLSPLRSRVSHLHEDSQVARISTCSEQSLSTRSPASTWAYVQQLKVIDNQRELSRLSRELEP
The series can be described thus: Rap1-GTP in HEK293 cells transfected with Epac1. More on the design: expressed in transfected cells; host or cells: HEK293. Conditions: 20 μM, 30 min preincubation; 8-CPT-AM 10 μM, 10 min. It counts as cell-based. As to the method: FIGS. 9-13. Amounts of Rap1-GTP (n=5 in each group, mean±S.E.M) were determined in HEK293 cells transfected with Epac1 (FIGS. 9-11), Epac2A (FIG. 12) or Epac2B (FIG. 13). Cells were preincubated or not with AM-001 (FIGS. 9, 12, and 13), AM-002 (FIG. 10) or AM-003 (FIG. 11) (20 μM, 30 min) and were then treated or not with 8-CPT-AM (10 μM for Epac1 activation and 20 μM for Epac2A activation) or S-220 (50 μM for Epac2B activation) for 10 min. ESI-05 was used as positive control of Epac2A inhibition. Representative immunoblots are shown. […], *[…], ***p<0.001, ****p<0.0001, versus indicated values, one way ANOVA, Bonferroni comparison test.
Human Embryonic Kidney cells line (HEK293): HEK293 cells were maintained is in minimal essential medium with FBS (10%) and penicillin-streptomycin (1%). All media, sera, and antibiotics used in cell culture were purchased from Invitrogen.
The human Epac1/Epac2 expression vector was a gift from Dr J. L. Bos. Cells were transfected using Lipofectamine 2000 (Invitrogen) according to the manufacturer's instructions. HEK293 cells were maintained in MEM with FBS (Foetal Bovine Serum; 10%) and penicillin-streptomycin (1%). All media, sera and antibiotics used in cell culture were purchased from Invitrogen (Cergy Pontoise, France). Transient transfection experiments were performed with Lipofectamine 2000 (Invitrogen Life Technologies) in the presence of various amounts of plasmid constructs according to the manufacturer's instructions.
This cell line is commonly used for the evaluation of Epac pharmacological modulators on the cellular signaling of ectopically expressed Epac1 and Epac2 isoforms. […] Next, the inventors investigated the effect of 8-CPT-AM on the two Epac2 splice variants, Epac2A and Epac2B (FIGS. 12-13).

Method for mice: Statistical significance was determined by two-way ANOVA followed by Bonferroni post-test or t-test. *p<0.01, **p<0.01, ***p<0.001, versus indicated values
Mice were anesthetized with intraperitoneal ketamine (60 mg/kg) and xylazine (6 mg/kg), intubated and ventilated mechanically. Anesthesia was maintained throughout the chirurgical procedure with 1.5% isoflurane. Body temperature was maintained at 37° C. A left thoracotomy was performed in order to enable coronary artery occlusion with a 7-0 Prolene thread placed around the left coronary artery for 45 min, followed by 24 h of reperfusion. […] Myocardial ischemia was confirmed by the presence of regional cyanosis. Reperfusion was confirmed by visualization of a hyperemic response. At this point, the chest was closed in layers. 24 h after reperfusion, mice were anesthetized again, the coronary artery was reoccluded at the previous site, and the heart was excised after Evans blue perfusion. The area at risk and the infarct area were respectively determined by Evans blue and 2,3,5-triphenyltetrazolium chloride (TTC) staining. The area at risk was identified as the non-blue region and expressed as a percentage of the left ventricle weight. The infarcted area was identified as the TTC negative zone and expressed as a percentage of area at risk.

The IC50 is the concentration needed to halve the response being measured. For the compound `Nc1c(C(=O)Nc2ccc(F)cc2)sc2nc(-c3cccs3)cc(-c3ccccc3)c12` [AM-001, 3-amino-N-(4-fluorophenyl)-4-phenyl-6-(thiophen-2-yl)thieno[2,3-b]pyridine-2-carboxamide], the “effect on Epac1 GEF (exchange) activity” value at Epac1 [1] (30 μM Sp-8-CPT, 20 μM inhibitor) was “prevented Epac1 GEF activity”. For the same compound, the half-maximal inhibitory concentration (IC50) was 47.8 ± 1.1 µM on Epac1 [1] (Sp-8-CPT at its EC50 for the isoform) and 48.5 ± 1 µM at Epac1 [1] (saturating concentration of Sp-8-CPT). Also, the “ratio of infarct size to area-at-risk” value in the series on mice turned out to be 36±3%. The cytotoxicity entry in series [2] is “no apparent cytotoxicity”. Moreover, in series [3] (AM-001 20 μM, 8-CPT-AM 10 μM), the “effect on 8-CPT-AM-induced cardiomyocyte death and hypertrophy” value is “inhibited the effect”. Moreover, the “cardiomyocyte survival by LDH release” value in series [3] (HX+R condition, 20 μM, 30 min pretreatment, vs control cells) was “significantly increased cardiomyocyte survival”. In addition, the “effect on type I PKA holoenzyme activation” value in the series on type I PKA holoenzyme was “did not influence”. For the same compound, the “inhibition of Epac1-induced Rap1 activation” value against Epac1 [4] is “prevented Epac1-induced Rap1 activation”.
